Source: patent US20150072416A1, “METABOLITE FOR IMPROVING PRODUCTION, MAINTENANCE AND PROLIFERATION OF PLURIPOTENT STEM CELLS, COMPOSITION COMPRISING THE SAME, AND METHOD OF CULTURING PLURIPOTENT STEM CELL USING THE SAME” (KOREA RESEARCH INSTITUTE OF BIOSCIENCE AND BIOTENOLOGY, priority 2012, published 2015)

Key:
Type in all cases: cell-based
[1] = tested on: H9 human embryonic stem cells; test: Mitochondrial membrane potential of human embryonic stem cells by JC-1 staining; conditions: 0.1 mM nicotinamide in mTeSR1
Description: In an example of the present invention, the membrane potential (ΔΨm) of mitochondria was measured after treatment with nicotinamide. When human embryonic stem cells were maintained and cultured, the membrane potential of mitochondria in the human embryonic stem cells was measured by JC-1 staining after addition of various concentrations of nicotinamide to mTeSR1. After JC-1 staining, activated mitochondria are stained with red, and non-activated mitochondria are stained with green. The ratio of the number of red-stained mitochondria to the number of green-stained mitochondria is measured, and an increase in the ratio indicates an increase in activated mitochondria.
In addition, the present inventors measured the membrane potential (ΔΨm) of mitochondria. When human embryonic stem cells were maintained and cultured, various concentrations of nicotinamide were added to mTeSR1, and then the mitochondrial membrane potential of the human embryonic stem cells was measured by JC-1 staining. After JC-1 staining, activated mitochondria are stained with red, and non-activated mitochondria are stained with green. The ratio of the number of red-stained mitochondria to the number of green-stained mitochondria is measured, and an increase in the ratio indicates an increase in the number of activated mitochondria.

[2] = tested on: human fibroblasts transfected with reprogramming factor OSKM; test: Senescence-associated beta-galactosidase staining and senescence-associated DNA damage staining during reprogramming; conditions: for decrease in number of senescent cells: 10 mM
Description: On day 26 of induction of reprogramming, the cells were fixed with a fixation solution at room temperature for 10 minutes, and then stained with a β-galactosidase solution at room temperature for 15 minutes. Next, the DNA was stained with DAPI (4′,6-diamidino-2-phenylindole) for 5 minutes, and then the cells were imaged by phase-contrast and fluorescence microscopy. The number of cells having senescence (green) damaged DNA (blue combined points) was counted and quantified relative to the number of normal cells.

[3] = tested on: human fibroblasts transfected with reprogramming factor OSKM; test: Mitochondrial membrane potential during reprogramming (JC-1, flow cytometry); conditions: 1 mM
Description: At different time points of reprogramming, the cells of a control group and a nicotinamide-treated group (Nam) were dissociated with single cells by trypsin, and then stained with JC-1 (5,5′,6,6′-tetraachloro-1,1′,3,3′-tetraethylbenzimidazolocarbocyanine iodide) solution at 37° C. for 15 minutes. After washing, the degree of fluorescence staining was measured by flow cytometry, relative mitochondrial membrane potential was quantified by the red/green ratio.

[4] = tested on: H9 human embryonic stem cells and human induced pluripotent stem cells; test: Low-density cloning after single-cell dissociation (AP staining, apoptosis); conditions: AP staining and apoptosis assays
Description: In order to examine the effect of nicotinamide on a reduction in the apoptosis of human pluripotent stem cells, dual apoptosis assay (Biotium, Hayward, Calif.) was performed. Embryonic stem cells or cells reprogrammed were stained with NucView™488 Caspase-3 Substrate (green)/Annextin V (red) at room temperature for 30 minutes, followed by washing with PBS. At least 4 sections of each sample were imaged with an Olympus fluorescence microscope (IX51, Olympus), and the number of cells stained with green (Caspase-3) was counted to quantify the degree of apoptosis.
In order to examine the effect of nicotinamide on the survival of human pluripotent stem cells at low density, human pluripotent stem cells were treated with TrypLE reagent (Invitrogen) for 3 minutes, and then dissociated into single cells by pipetting and seeded on a Matrigel-coated 96-well plate at a density of 500 cells per well. After 5 days of culture, human pluripotent stem cell colonies started to be formed, and the cells were fixed with 4% paraformaldehyde, and then AP staining was performed or the level of apoptosis was measured.

[5] = tested on: human pluripotent stem cells; test: Long-term subculture in UM with nicotinamide (TRA-1-60 staining, karyotyping)

## NC(=O)c1cccnc1 [nicotinamide]
[1]
  number of activated mitochondria / mitochondrial membrane potential (JC-1 red/green): significantly increased
[2]; 1 mM, compared to control group
  decrease in cellular senescence-associated DNA damage: 83.0±0.5%
[2]; 1 mM, day 19, compared to untreated group
  decrease in ratio of cells stained with senescence-associated beta-galactosidase: 88.1±1.4%
[2]; 1 mM, day 26, compared to untreated group
  decrease in ratio of cells stained with senescence-associated beta-galactosidase: 76.9±2.5%
[2]; day 19, compared to control group
  decrease in number of senescent cells: 76.1±1.4%
[2]; day 21, compared to control group
  decrease in number of senescent cells: 30.8±9.0%
[3]
  membrane potential of mitochondria in reprogramming conditions: the membrane potential was maintained
[4]
  survival and self-renewal abilities at low density after single-cell dissociation: significantly increased
[5]; UM with 0.1 mM nicotinamide, TRA-1-60 staining
  passages subcultured in an undifferentiated state: ≥ 10 passages
[5]; nicotinamide-containing medium
  karyotype after long-term subculture: normal karyotypes
